Key:
[1] = Acute toxicity in Sprague-Dawley rat assessed as death at 500 to 2000 mg/kg, IG measured for 14 days; type: organism-based; conditions: in vivo, po, 336 h, dose 500-2000 mg/kg, time 14 day
[2] = Cmax in Sprague-Dawley rat at 5 mg/kg, IG measured upto 24 hrs by LC-MS/MS analysis; type: ADME, organism-based; design: time < 24 hrs, dose 5 mg/kg, route ig; conditions: in vivo, po
[3] = Bioavailability in Sprague-Dawley rat at 2.5 mg/kg, IG measured upto 24 hrs by LC-MS/MS analysis; type: ADME, organism-based; conditions: in vivo, po
[4] = AUC (0 to t) in female Sprague-Dawley rat at 30 mg/kg, IG measured at 24 hrs LC-MS/MS analysis; type: ADME, organism-based; design: dose 30 mg/kg, time 24 hrs, route ig; conditions: in vivo, po
[5] = Apparent oral clearance in Sprague-Dawley rat at 10 mg/kg, IG measured upto 24 hrs by LC-MS/MS analysis; type: ADME, organism-based; conditions: in vivo
[6] = AUC (0 to t) in Sprague-Dawley rat at 5 mg/kg, iv measured upto 24 hrs by LC-MS/MS analysis; type: ADME, organism-based; design: dose 5 mg/kg, time < 24 hrs, route iv; conditions: in vivo
[7] = AUC (0 to t) in male Sprague-Dawley rat at 10 mg/kg, IG measured at 0.5 hrs LC-MS/MS analysis; type: ADME, organism-based; design: dose 10 mg/kg, time 0.5 hrs, route ig; conditions: in vivo, po
[8] = AUC (0 to t) in female Sprague-Dawley rat at 100 mg/kg, IG measured at 24 hrs LC-MS/MS analysis; type: ADME, organism-based; design: time 24 hrs, dose 100 mg/kg, route ig; conditions: in vivo, po
[9] = AUC (0 to t) in male Sprague-Dawley rat at 100 mg/kg, IG measured at 24 hrs LC-MS/MS analysis; type: ADME, organism-based; design: time 24 hrs, dose 100 mg/kg, route ig; conditions: in vivo, po
[10] = Apparent oral clearance in Sprague-Dawley rat at 5 mg/kg, IG measured upto 24 hrs by LC-MS/MS analysis; type: ADME, organism-based; conditions: in vivo
[11] = tested on: Human immunodeficiency virus 1; assay: Antiviral activity against HIV1 NL4-3 infected in human C8166 cells assessed as inhibition of viral replication by measuring reduction in p24 antigen level incubated for 3 to 7 days by ELISA analysis; type: functional, organism-based; conditions: Human immunodeficiency virus 1, NL4-3, C8166
[12] = Acute toxicity in Sprague-Dawley rat assessed as effect on spleen damage at 500 to 2000 mg/kg, IG measured on day 15; type: organism-based; conditions: in vivo, po, 360 h, dose 500-2000 mg/kg, time 15 day
[13] = tested on: Human immunodeficiency virus 1; assay: Antiviral activity against HIV1 A17 infected in human C8166 cells assessed as inhibition of viral replication by measuring reduction in p24 antigen level incubated for 3 to 7 days by ELISA analysis; type: functional, organism-based; conditions: Human immunodeficiency virus 1, A17, C8166
[14] = tested on: Human immunodeficiency virus 1; assay: Antiviral activity against HIV1 VSV-G pseudotyped virus infected in human HEK293T cells assessed as inhibition of viral growth preincubated for 3 hrs followed by washout and further incubated with compound for 72 hrs by luciferase assay; type: functional, organism-based; conditions: Human immunodeficiency virus 1, HEK-293T
[15] = AUC (0 to t) in male Sprague-Dawley rat at 100 mg/kg, IG measured at 0.5 hrs LC-MS/MS analysis; type: ADME, organism-based; design: dose 100 mg/kg, time 0.5 hrs, route ig; conditions: in vivo, po
[16] = Half life in Sprague-Dawley rat at 2.5 mg/kg, IG measured upto 24 hrs by LC-MS/MS analysis; type: ADME, organism-based; conditions: in vivo, po
[17] = AUC (0 to t) in female Sprague-Dawley rat at 30 mg/kg, IG measured at 0.5 hrs LC-MS/MS analysis; type: ADME, organism-based; design: time 0.5 hrs, dose 30 mg/kg, route ig; conditions: in vivo, po
[18] = Cmax in Sprague-Dawley rat at 2.5 mg/kg, IG measured upto 24 hrs by LC-MS/MS analysis; type: ADME, organism-based; design: time < 24 hrs, dose 2.5 mg/kg, route ig; conditions: in vivo, po
[19] = Acute toxicity in Sprague-Dawley rat assessed as effect on heart damage at 500 to 2000 mg/kg, IG measured on day 15; type: organism-based; conditions: in vivo, po, 360 h, dose 500-2000 mg/kg, time 15 day
[20] = Toxicity in Sprague-Dawley rat assessed as effect on blood biochemistry at 10 to 30 mg/kg, po administered once daily for 4 weeks and measured after 24 hrs post last dose; type: organism-based; conditions: in vivo, 696 h, dose 10-30 mg/kg
[21] = Cmax in Sprague-Dawley rat at 10 mg/kg, IG measured upto 24 hrs by LC-MS/MS analysis; type: ADME, organism-based; design: time < 24 hrs, dose 10 mg/kg, route ig; conditions: in vivo, po
[22] = Toxicity in Sprague-Dawley rat assessed as effect on body weight at 10 to 30 mg/kg, po administered once daily for 4 weeks and measured after 24 hrs post last dose; type: organism-based; conditions: in vivo, 696 h, dose 10-30 mg/kg
[23] = AUC (0 to t) in Sprague-Dawley rat at 2.5 mg/kg, IG measured upto 24 hrs by LC-MS/MS analysis; type: ADME, organism-based; design: time < 24 hrs, dose 2.5 mg/kg, route ig; conditions: in vivo, po
[24] = tested on: Human immunodeficiency virus 1; assay: Antiviral activity against HIV1 IIIB infected in human MT4 cells assessed as inhibition of viral replication incubated for 3 to 7 days by MTT analysis; type: functional, organism-based; conditions: Human immunodeficiency virus 1, IIIB
[25] = tested on: Human immunodeficiency virus 1; assay: Antiviral activity against HIV1 KIZ001 infected in human PBMC assessed as inhibition of viral replication by measuring reduction in p24 antigen level incubated for 3 to 7 days by ELISA analysis; type: functional, organism-based; conditions: Human immunodeficiency virus 1, KIZ001, PBMC
[26] = Cmax in Sprague-Dawley rat at 5 mg/kg, iv measured upto 24 hrs by LC-MS/MS analysis; type: ADME, organism-based; design: time < 24 hrs, dose 5 mg/kg, route iv; conditions: in vivo
[27] = Tmax in Sprague-Dawley rat at 5 mg/kg, IG measured upto 24 hrs by LC-MS/MS analysis; type: ADME, organism-based; conditions: in vivo, po
[28] = tested on: Human immunodeficiency virus 1; assay: Antiviral activity against HIV1 IIIB infected in human C8166 cells assessed as inhibition of syncytia formation incubated for 3 to 7 days by syncytia assays; type: functional, organism-based; conditions: Human immunodeficiency virus 1, IIIB
[29] = Acute toxicity in Sprague-Dawley rat assessed as effect on lung damage at 500 to 2000 mg/kg, IG measured on day 15; type: organism-based; conditions: in vivo, po, 360 h, dose 500-2000 mg/kg, time 15 day
[30] = tested on: Human immunodeficiency virus 1; assay: Antiviral activity against HIV1 4755-5 infected in human C8166 cells assessed as inhibition of viral replication by measuring reduction in p24 antigen level incubated for 3 to 7 days by ELISA analysis; type: functional, organism-based; conditions: Human immunodeficiency virus 1, 4755-5, C8166
[31] = Acute toxicity in Sprague-Dawley rat assessed as effect on food intake at 500 to 2000 mg/kg, IG measured for 14 days; type: organism-based; conditions: in vivo, po, 336 h, dose 500-2000 mg/kg, time 14 day
[32] = Toxicity in Sprague-Dawley rat assessed as effect on food consumption at 10 to 30 mg/kg, po administered once daily for 4 weeks and measured after 24 hrs post last dose; type: organism-based; conditions: in vivo, 696 h, dose 10-30 mg/kg
[33] = tested on: Human immunodeficiency virus 1; assay: Antiviral activity against HIV1 IIIB infected in human C8166 cells assessed as inhibition of viral replication by measuring reduction in p24 antigen level incubated for 3 to 7 days by ELISA analysis; type: functional, organism-based; conditions: Human immunodeficiency virus 1, IIIB
[34] = Selectivity index, ratio of CC50 for cytotoxicity against HEK293T cells assessed as reduction in cell viability by MTT assay to EC50 for antiviral activity against HIV1 VSV-G pseudotyped virus infected in human HEK293T cells assessed as inhibition of viral growth; type: toxicity, cell-based; conditions: read-out: Ratio CC50/EC50
[35] = tested on: Human immunodeficiency virus 1; assay: Antiviral activity against HIV1 WAN infected in human PBMC assessed as inhibition of viral replication by measuring reduction in p24 antigen level incubated for 3 to 7 days by ELISA analysis; type: functional, organism-based; conditions: Human immunodeficiency virus 1, WAN

**Q.** Which Activity [1] does the source give for `C#C[C@]1(CO)O[C@@H](n2cnc3c(N)nc(F)nc32)[C@@H](F)[C@@H]1O` here?
**A.** Non-Toxic

**Q.** What about the Cmax [2] of the same compound?
**A.** 1230 ng/mL

**Q.** And the bioavailability [3]?
**A.** 64.2%

**Q.** What about the AUC(0-t) at 24 h [4] of the same compound?
**A.** 26500 ng·h/mL

**Q.** And the CL/F [5]?
**A.** 21.2 mL/min/kg

**Q.** And the AUC(0-t) at 24 h [6]?
**A.** 5290 ng·h/mL

**Q.** And the AUC(0-t) at 0.5 h [7]?
**A.** 6860 ng·h/mL

**Q.** What about the AUC(0-t) at 24 h [8] of the same compound?
**A.** 82500 ng·h/mL

**Q.** And the AUC(0-t) at 24 h [9]?
**A.** 85800 ng·h/mL

**Q.** What about the CL/F [10] of the same compound?
**A.** 25 mL/min/kg

**Q.** And the EC50 [11]?
**A.** 1.18 nM

**Q.** What about the Activity [12] of the same compound?
**A.** Non-Toxic

**Q.** And the EC50 [13]?
**A.** 1.53 nM

**Q.** What about the EC50 [14] of the same compound?
**A.** 0.9 nM

**Q.** And the AUC(0-t) at 0.5 h [15]?
**A.** 89300 ng·h/mL

**Q.** What about the half-life [16] of the same compound?
**A.** 2 h

**Q.** What about the AUC(0-t) at 0.5 h [17] of the same compound?
**A.** 22800 ng·h/mL

**Q.** And the Cmax [18]?
**A.** 630 ng/mL

**Q.** And the Activity [19]?
**A.** Non-Toxic

**Q.** What about the Activity [20] of the same compound?
**A.** Non-Toxic

**Q.** What about the Cmax [21] of the same compound?
**A.** 2110 ng/mL

**Q.** What about the Activity [22] of the same compound?
**A.** Non-Toxic

**Q.** And the AUC(0-t) at 24 h [23]?
**A.** 1720 ng·h/mL

**Q.** And the EC50 [24]?
**A.** 1.22 nM

**Q.** And the EC50 [25]?
**A.** 1.87 nM

**Q.** And the Cmax [26]?
**A.** 10200 ng/mL

**Q.** What about the Tmax [27] of the same compound?
**A.** 0.56 h

**Q.** What about the EC50 [28] of the same compound?
**A.** 3.51 nM

**Q.** And the Activity [29]?
**A.** Non-Toxic

**Q.** What about the EC50 [30] of the same compound?
**A.** 32.4 nM

**Q.** What about the Activity [31] of the same compound?
**A.** Non-Toxic

**Q.** And the Activity [32]?
**A.** Non-Toxic

**Q.** And the EC50 [33]?
**A.** 6.5 nM

**Q.** What about the selectivity ratio [34] of the same compound?
**A.** > 111000

**Q.** And the EC50 [35]?
**A.** 14.4 nM

Reference: ChEMBL document CHEMBL5360641, “4'-Ethynyl-2'-deoxy-2'-β-fluoro-2-fluoroadenosine: A Highly Potent and Orally Available Clinical Candidate for the Treatment of HIV-1 Infection” (J Med Chem, 2023)
